Tested on: HCV genotype-1a variant with glutamine 30 changed to glutamate in the NS5A protein
Type: cell-based
Settings: test compound titrated with BMS-790052 fixed at 200 nM; genotype 1a Q30E replicon
Summary of the method: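 Synergy was assessed by combining several fixed amounts of an NS5A-targeting compound with a titration of the second compound of interest.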

Structure (SMILES)	Fold-Synergistic 1a (Q30E)
CC(C)(CO)C(=O)NC(c1nc(-c2ccc(-c3ccc(-c4c[nH]c(C(NC(=O)C(C)(C)CO)C(C)(C)C)n4)cc3)cc2)c[nH]1)C(C)(C)C [Compound L-56]	>100 fold
CC(C)(C(=O)N[C@H](c1nc(-c2ccc(-c3ccc(-c4cnc([C@@H](NC(=O)C(C)(C)C5CCCO5)C(C)(C)C)[nH]4)cc3)cc2)c[nH]1)C(C)(C)C)C1CCCO1 (single isomer, unassigned) [Compound B-171]	>100 fold
CC(C)[C@H](N[S+]([O-])C(C)(C)C)c1ncc(-c2ccc(-c3ccc(-c4cnc([C@@H](N[S+]([O-])C(C)(C)C)C(C)C)[nH]4)cc3)cc2)[nH]1 (single isomer, unassigned) [Compound Y-59]	>100 fold
CC1(C(NC(=O)C(C)(C)C(O)C2CC2)c2nc(-c3ccc(-c4ccc(-c5c[nH]c(C(NC(=O)C(C)(C)C(O)C6CC6)C6(C)CC6)n5)cc4)cc3)c[nH]2)CC1 (mixture of isomers) [Compound N-150]	>100 fold
Cc1ccc(C(=O)N[C@H](c2nc(-c3ccc(-c4ccc(-c5c[nH]c([C@@H](NC(=O)c6ccc(C)s6)C(C)(C)C)n5)cc4)cc3)c[nH]2)C(C)(C)C)s1 [Compound N-64]	>100 fold
CC(C)(C)[C@H](NC(=O)C1CCOC1)c1nc(-c2ccc(-c3ccc(-c4c[nH]c([C@@H](NC(=O)C5CCOC5)C(C)(C)C)n4)cc3)cc2)c[nH]1 (some centres unmarked) [Compound W-129]	>10 fold
CC(C)[C@H](NC(=O)CC1CCCC1)c1ncc(-c2ccc(-c3ccc(-c4cnc([C@@H](NC(=O)CC5CCCC5)C(C)C)[nH]4)cc3)cc2)[nH]1 [Compound S-3]	>100 fold
CC(C)(C)C(=O)N[C@H](c1nc(-c2ccc(-c3ccc(-c4c[nH]c([C@@H](NC(=O)C(C)(C)C)C(C)(C)CO)n4)cc3)cc2)c[nH]1)C(C)(C)CO [Compound N-110]	>100 fold
Cc1cc(-c2ccc(-c3c[nH]c([C@@H](NC(=O)C4(C)CCC(F)(F)CC4)C(C)C)n3)cc2)ccc1-c1c[nH]c([C@@H](NC(=O)C2(C)CCC(F)(F)CC2)C(C)C)n1.O=C(O)C(F)(F)F [Compound N-84]	>100 fold
O=C([C@@H]1C[C@H]1c1ccccc1)N1CCC[C@H]1c1ncc(-c2ccc(-c3ccc(-c4cnc([C@@H]5CCCN5C(=O)[C@@H]5C[C@H]5c5ccccc5)[nH]4)cc3)cc2)[nH]1 [Compound S-161]	>10 fold
COC1CC(C(=O)NC(c2nc(-c3ccc(-c4ccc(-c5c[nH]c(C(NC(=O)C6CC(OC)C6)C(C)(C)C)n5)cc4)cc3)c[nH]2)C(C)(C)C)C1 [Compound L-54]	>100 fold
CC(C)(C)CCC(=O)N[C@H](c1nc(-c2ccc(-c3ccc(-c4c[nH]c([C@@H](NC(=O)CCC(C)(C)C)C(C)(C)C)n4)cc3)cc2)c[nH]1)C(C)(C)C [Compound N-58]	>100 fold
CC1CC(C(=O)NC(c2nc(-c3ccc(-c4ccc(-c5c[nH]c(C(NC(=O)C6CC(C)CN6C(=O)OC(C)(C)C)C6(C)CC6)n5)cc4)cc3)c[nH]2)C2(C)CC2)N(C(=O)OC(C)(C)C)C1 (centres unmarked) [Compound W-71]	>100 fold
CC(C)[C@H](NC(=O)N(C)C)c1nc(-c2ccc(-c3ccc(-c4c[nH]c([C@@H](NC(=O)N(C)C)C(C)C)n4)cc3)cc2)c[nH]1 [Compound S-228]	>100 fold
CC(C)(C)[C@H](NC(=O)C1(C2(O)CCC(F)(F)CC2)CC1)c1ncc(-c2ccc(C#Cc3ccc4nc([C@@H](NC(=O)C5(C6(O)CCC(F)(F)CC6)CC5)C(C)(C)C)[nH]c4c3)cc2)[nH]1 [Compound B48B]	>100 fold
CC(C)(C)C(NC(=O)C1CCC(O)CC1)c1nc(-c2ccc(-c3ccc(-c4c[nH]c(C(NC(=O)C5CCC(O)CC5)C(C)(C)C)n4)cc3)cc2)c[nH]1 (centres unmarked) [Compound W-134]	>100 fold
CC(C)(C)C(NC(=O)C1(O)CCCOC1)c1nc(-c2ccc(-c3ccc(-c4c[nH]c(C(NC(=O)C5(O)CCCOC5)C(C)(C)C)n4)cc3)cc2)c[nH]1 (mixture of isomers) [Compound Y-102]	>100 fold
CC(C)(C)OC(=O)N1CCCCC1(C)C(=O)N[C@H](c1nc(-c2ccc(-c3ccc(-c4c[nH]c([C@@H](NC(=O)C5(C)CCCCN5C(=O)OC(C)(C)C)C(C)(C)C)n4)cc3)cc2)c[nH]1)C(C)(C)C (single isomer, unassigned) [Compound L-46a]	>100 fold
CC(C)(C)[C@H](NC(=O)C1CCCOC1)c1nc(-c2ccc(-c3ccc(-c4c[nH]c([C@@H](NC(=O)C5CCCOC5)C(C)(C)C)n4)cc3)cc2)c[nH]1 (some centres unmarked) [Compound W-131]	>100 fold
CC(C)(C)C(NC(=O)C1(O)CCC1)c1nc(-c2ccc(-c3ccc(-c4c[nH]c(C(NC(=O)C5(O)CCC5)C(C)(C)C)n4)cc3)cc2)c[nH]1 [Compound L-71]	>100 fold
CC(C)[C@H](NC(=O)C1CCC(F)(F)CC1)c1nc2ccc(C#Cc3ccc4nc([C@@H](NC(=O)C5CCC(F)(F)CC5)C(C)C)[nH]c4c3)cc2[nH]1.O=C(O)C(F)(F)F [Compound B42]	>100 fold

Structure (SMILES)	Fold-Synergistic 1a (Q30E)
CC(C)(C)[C@H](NC(=O)C1CCC(F)(F)CC1)c1ncc(-c2cc3cc4oc(-c5cnc([C@@H](NC(=O)C6CCC(F)(F)CC6)C(C)(C)C)[nH]5)cc4cc3o2)[nH]1 [Compound B59]	>100 fold
C#CCCC(=O)N[C@H](c1ncc(-c2ccc(-c3ccc(-c4cnc([C@@H](NC(=O)CCC#C)C(C)C)[nH]4)cc3)cc2)[nH]1)C(C)C [Compound S-44]	>100 fold
CC(C)[C@H](NC(=O)CCCn1ccnc1)c1ncc(-c2ccc(-c3ccc(-c4cnc([C@@H](NC(=O)CCCn5ccnc5)C(C)C)[nH]4)cc3)cc2)[nH]1 [Compound S-58]	<10 fold
CC(C)(C)[C@H](NC(=O)C1(CF)CC1)c1nc(-c2ccc(-c3ccc(-c4c[nH]c([C@@H](NC(=O)C5(CF)CC5)C(C)(C)C)n4)cc3)cc2)c[nH]1 [Compound P-14]	>100 fold
CC(C)(C)C(NC(=O)C(C)(C)C1CCC(F)(F)CO1)c1nc(-c2ccc(-c3ccc(-c4c[nH]c(C(NC(=O)C(C)(C)C5CCC(F)(F)CO5)C(C)(C)C)n4)cc3)cc2)c[nH]1 (mixture of isomers) [Compound P-155]	>100 fold
CC(C)CC(=O)N1[C@@H]2C[C@@H]2C[C@H]1c1nc(-c2ccc(-c3ccc(-c4c[nH]c([C@@H]5C[C@H]6C[C@H]6N5C(=O)CC(C)C)n4)cc3)cc2)c[nH]1 [Compound P-50]	<10 fold
O=C(NC(c1nc(-c2ccc(-c3ccc(-c4c[nH]c(C(NC(=O)C(=O)N5CCC(F)(F)CC5)C5CC5)n4)cc3)cc2)c[nH]1)C1CC1)C(=O)N1CCC(F)(F)CC1 [Compound L-37]	>100 fold
CCCOC(=O)N[C@@H](C(=O)N[C@H](c1ncc(-c2ccc(-c3ccc(-c4cnc([C@@H](NC(=O)[C@H](NC(=O)OCCC)C(C)C)C(C)C)[nH]4)cc3)cc2)[nH]1)C(C)C)C(C)C [Compound S-248]	>100 fold
CC(C)[C@H](NC(=O)C(C)(C)C)c1nc(-c2ccc(-c3ccc(-c4c[nH]c([C@@H](NC(=O)C(C)(C)C)C(C)C)n4)cc3F)cc2)c[nH]1.O=C(O)C(F)(F)F [Compound N-100]	>100 fold
CC(C)(C)C(NC(=O)C1CC(=O)c2ccccc21)c1nc(-c2ccc(-c3ccc(-c4c[nH]c(C(NC(=O)C5CC(=O)c6ccccc65)C(C)(C)C)n4)cc3)cc2)c[nH]1 (mixture of isomers) [Compound S-257]	>10 fold
CC(C)[C@H](NC(=O)C(=O)C1(C)CCC1)c1ncc(-c2ccc(-c3ccc(-c4cnc([C@@H](NC(=O)C(=O)C5(C)CCC5)C(C)C)[nH]4)cc3)cc2)[nH]1 [Compound P-115]	>100 fold
CC(C)[C@H](NC(=O)c1cccc2c1OCC2)c1ncc(-c2ccc(-c3ccc(-c4cnc([C@@H](NC(=O)c5cccc6c5OCC6)C(C)C)[nH]4)cc3)cc2)[nH]1 [Compound S-55]	>100 fold
C[C@H]1CCN(C(=O)C(=O)N2CCC(F)(F)CC2)C1c1nc(-c2ccc(-c3ccc(-c4c[nH]c(C5[C@@H](C)CCN5C(=O)C(=O)N5CCC(F)(F)CC5)n4)cc3)cc2)c[nH]1 (some centres unmarked) [Compound W-186]	>100 fold
CC(C)(C)[C@H](NC(=O)CC1CCCCC1)c1nc(-c2ccc(-c3ccc(-c4c[nH]c([C@@H](NC(=O)CC5CCCCC5)C(C)(C)C)n4)cc3)cc2)c[nH]1 [Compound N-50]	>100 fold
CC(C)[C@H](NC(=O)c1ccc(C(F)(F)F)nc1)c1ncc(-c2ccc(-c3ccc(-c4cnc([C@@H](NC(=O)c5ccc(C(F)(F)F)nc5)C(C)C)[nH]4)cc3)cc2)[nH]1 [Compound S-103]	>100 fold
CC(C)[C@H](NC(=O)Cc1cnccn1)c1ncc(-c2ccc(-c3ccc(-c4cnc([C@@H](NC(=O)Cc5cnccn5)C(C)C)[nH]4)cc3)cc2)[nH]1 [Compound S-60]	<10 fold
CC1(O)CC(C(=O)N[C@H](c2nc(-c3ccc(-c4ccc(-c5c[nH]c([C@@H](NC(=O)C6CC(C)(O)C6)C(C)(C)C)n5)cc4)cc3)c[nH]2)C(C)(C)C)C1 (single isomer, unassigned) [Compound W-169]	>100 fold
COCC(=O)N[C@H](c1ncc(-c2ccc(-c3ccc(-c4cnc([C@@H](NC(=O)COC)C(C)C)[nH]4)cc3)cc2)[nH]1)C(C)C [Compound S-13]	>10 fold
CC1(C)CCCC(C)(C(=O)N[C@H](c2nc(-c3ccc(-c4ccc(-c5c[nH]c([C@@H](NC(=O)C6(C)CCCC(C)(C)O6)C(C)(C)C)n5)cc4)cc3)c[nH]2)C(C)(C)C)O1 (single isomer, unassigned) [Compound W-167]	>100 fold
CC(C)(C)[C@H](NC(=O)c1ccc(F)c(F)c1)c1nc(-c2ccc(-c3ccc(-c4c[nH]c([C@@H](NC(=O)c5ccc(F)c(F)c5)C(C)(C)C)n4)cc3)cc2)c[nH]1 [Compound N-51]	>100 fold
